Residue numbers refer to the chain shown, from its start. Entries after “also recorded” stand apart in the source; their conditions may differ.
Tests used:
AR T877A = target: T1, AR T877A (Homo sapiens, UniProt P10275, DEL79-80/DUP473-473/T878A); assay: AR luciferase reporter assay (ARE(4X)-luciferase) in CV1 cells; format: cell-based; details: 10 μM antiandrogen
T1 construct: expressed in transfected cells; host or cells: CV1
T1 sequence (P10275 with tags, fused parts or gaps DEL79-80/DUP473-473/T878A): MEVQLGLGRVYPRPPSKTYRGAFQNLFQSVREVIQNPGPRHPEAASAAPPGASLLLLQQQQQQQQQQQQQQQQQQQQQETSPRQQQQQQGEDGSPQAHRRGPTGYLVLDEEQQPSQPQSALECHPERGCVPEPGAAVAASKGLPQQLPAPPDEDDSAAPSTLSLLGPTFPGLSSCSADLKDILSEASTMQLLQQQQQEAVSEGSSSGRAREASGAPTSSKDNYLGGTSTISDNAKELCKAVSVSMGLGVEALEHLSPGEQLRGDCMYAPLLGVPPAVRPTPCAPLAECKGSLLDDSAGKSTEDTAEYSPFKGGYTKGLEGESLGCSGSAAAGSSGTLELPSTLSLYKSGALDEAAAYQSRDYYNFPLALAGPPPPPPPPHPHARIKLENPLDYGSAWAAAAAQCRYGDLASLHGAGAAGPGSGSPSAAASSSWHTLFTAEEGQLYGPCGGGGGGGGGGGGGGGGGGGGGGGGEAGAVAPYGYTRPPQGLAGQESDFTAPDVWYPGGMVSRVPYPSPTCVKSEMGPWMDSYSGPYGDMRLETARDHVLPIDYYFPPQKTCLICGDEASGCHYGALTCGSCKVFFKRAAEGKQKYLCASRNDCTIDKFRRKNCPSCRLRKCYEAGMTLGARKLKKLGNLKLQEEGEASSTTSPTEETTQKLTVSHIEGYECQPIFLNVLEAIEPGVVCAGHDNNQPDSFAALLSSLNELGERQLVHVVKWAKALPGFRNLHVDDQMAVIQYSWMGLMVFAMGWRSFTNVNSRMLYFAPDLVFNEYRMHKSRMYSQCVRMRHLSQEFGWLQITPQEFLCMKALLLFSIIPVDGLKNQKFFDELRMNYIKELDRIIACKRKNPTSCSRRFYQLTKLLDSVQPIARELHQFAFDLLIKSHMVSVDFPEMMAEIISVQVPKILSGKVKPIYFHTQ
Experimental: Transfection media was removed 4-6 hours later and replaced with phenol red free DME-HG containing 10% charcoal stripped serum. The following day each plate was split into 24- or 48-well plates, in 10% CSS media, containing the indicated drugs in triplicate. Twenty-four to forty-eight hours later, luciferase activity was assayed using Dual-Luciferase Reporter Assay System (Promega) on a 96-well luminometer (Turner Biosystems).

[1] = test system: DU145 (an AR null human prostate cancer cell line); assay: DU145 cell viability (CellTiterGLO); format: cell-based; details: 10 μM, full serum containing media
Experimental: DU145 cells were cultured in full serum containing media with 10 uM of the indicated antiandrogens. CellTiterGLO assay was performed on days 0, 3, and 6 to determine cell viability. RLU=relative light units.

[2] = test system: CWR22PC cells expressing AR F876L; assay: CWR22PC cell viability (CellTiterGLO); format: cell-based, human; details: full serum media; days 1, 4, and 7
Experimental: CellTiterGLO assay was performed on days 1, 4, and 7 to measure cell viability. […] CellTiterGLO assay was performed on days 1, 4, and 7 to measure cell viability.
CellTiterGLO assay was performed on days 1, 4, and 7 to determine cell viability. RLU=relative light units.

[3] = test system: CWR22PC cells expressing AR WT; assay: CWR22PC cell viability (CellTiterGLO); format: cell-based, human; details: full serum media; days 1, 4, and 7
Experimental: […]. […] CellTiterGLO assay was performed on days 1, 4, and 7 to measure cell viability. […] CellTiterGLO assay was performed on days 1, 4, and 7 to measure cell viability.
[…]. […] CellTiterGLO assay was performed on days 1, 4, and 7 to determine cell viability. RLU=relative light units.

[4] = test system: VCaP cells overexpressing AR F876L; assay: VCaP growth assay (CellTiter-GLO); format: cell-based, human; details: full-serum containing media, 10 μM
AR WT = target: T2, AR WT (Homo sapiens, UniProt P10275, DEL79-80/DUP473-473); assay: EGFP reporter assay of AR activity, LNCaP-Pb.PSE.EGFP cells, flow cytometry; format: cell-based; details: 10 μM, 4 days of treatment
T2 construct: expressed in transfected cells; host or cells: LNCaP-Pb.PSE.EGFP (pantropic retroviral infection, blasticidin selection)
T2 sequence (P10275 with tags, fused parts or gaps DEL79-80/DUP473-473): T1 sequence (P10275 with tags, fused parts or gaps DEL79-80/DUP473-473/T878A) with A877T
Description: (§1) This clone was used for all flow cytometry assays and for the FACS-based resistance screens.

AR F876L = target: T3, AR F876L (Homo sapiens, UniProt P10275, DEL79-80/DUP473-473/F877L); assay: as above; format: cell-based; details: 10 μM, 4 days of treatment
T3 construct: expressed in transfected cells
T3 sequence (P10275 with tags, fused parts or gaps DEL79-80/DUP473-473/F877L): T1 sequence (P10275 with tags, fused parts or gaps DEL79-80/DUP473-473/T878A) with F876L, A877T
Description: as §1

[5] = test system: VCaP cells overexpressing AR WT; assay: VCaP growth assay (CellTiter-GLO); format: cell-based, human; details: full-serum containing media, 10 μM
[6] = test system: VCaP cells expressing AR WT and AR F876L; assay: Western blot of AR signaling and PARP cleavage in VCaP cells; format: cell-based, human; details: 10 μM, 4 days, media containing FBS
Experimental: Fetal bovine serum (FBS) and charcoal-stripped, dextran-treated fetal bovine serum (CSS) were purchased from Omega Scientific. […] Serial dilutions of all drugs were made using DMSO. Antibodies used for immunoblot assays were b-actin (AC-15, Sigma) PARP (#9543; Cell Signaling Technology), FKBP5 (IHC-00289, Bethyl), b-tubulin (D-10) and androgen receptor (N-20) (both from Santa Cruz Biotechnology). Protein lysates were prepared in M-PER protein extraction reagent (Pierce) or 1% SDS buffer. The chromatin immunoprecipitation assay was conducted using a kit (Upstate) with an antibody for androgen receptor (PG-21, Upstate). Nontarget and mouse AR siRNA pools were from the ON-TARGETplus collection (Dharmacon).

[7] = test system: AR mutants isolated from drug resistant CWR22Pc cells; assay: EGFP reporter assay and qRT-PCR, LNCaP/Pb.PSE.EGFP cells; format: cell-based, human; details: 10 μM antiandrogen; variable degrees, gene-specific differences
[8] = test system: LNCaP/AR cells ectopically expressing AR WT; assay: LNCaP/AR xenograft, time to tumor progression; format: in vivo, castrated male SCID mice; details: 30 mg/kg enzalutamide, daily gavage, castrate SCID mice
Experimental: Daily gavage treatment (using a formulation of 1% carboxymethyl cellulose, 0.1% Tween-80, 5% DMSO) was initiated on the day of injection. Once tumors were palpable, tumor size was measured weekly in three dimensions (1×w×d) with calipers.

[9] = test system: AR mutants isolated from drug resistant LNCaP/AR xenograft tumors; assay: Luciferase reporter assay of AR activity in androgen depleted media, CV1 cells; format: cell-based, human; details: 10 μm antiandrogen
[10] = test system: AR mutants isolated from drug resistant LNCaP/AR xenograft tumors; assay: EGFP reporter assay of AR activity, LNCaP/Pb.PSE.EGFP cells; format: cell-based, human; details: androgen containing media, 10 μM antiandrogen
Experimental: Additionally, EGFP reporter assays of AR activity in cells expressing the indicated AR mutants were performed and the data are presented in FIG. 21A and FIG. 21B.

Row | Structure (SMILES) | Agonism in luciferase reporter (AR T877A) | Proliferation of DU145 cells ([1]; listed as (+)-DR103) | Proliferation of DU145 cells ([1]; listed as DR103) | Growth/viability of CWR22PC cells expressing AR F876L [2] | Growth/viability of CWR22PC cells, AR WT [3] | Growth of VCaP cells overexpressing AR F876L [4] | Growth of VCaP cells overexpressing AR F876L ([4]; listed as (+)-DR103) | Effect on transcriptional activity of AR WT in EGFP reporter assay (agonism or antagonism) (AR WT) | Effect on transcriptional activity of AR F876L in EGFP reporter assay (agonism or antagonism) (AR F876L) | Growth of VCaP cells, AR WT [5] | Growth of VCaP cells, AR WT ([5]; listed as (+)-DR103) | Endogenous AR signaling (Western blot) [6] | PARP cleavage (Western blot) [6] | Endogenous AR signaling (Western blot) ([6]; listed as DR103) | PARP cleavage (Western blot) ([6]; listed as DR103) | Sensitivity of AR mutants, EGFP reporter assay & qRT-PCR [7] | Growth of wild-type AR tumors [8] | Agonism on AR mutants, luciferase reporter [9] | Sensitivity of AR mutants, EGFP reporter [10]
1 | CC(C)(O)C(=O)Nc1ccc([N+](=O)[O-])c(C(F)(F)F)c1 [hydroxyflutamide] | confer agonism |  |  |  |  |  |  |  |  |  |  |  |  |  |  |  |  |  | 
2 | CNC(=O)c1ccc(N2C(=S)N(c3ccc(C#N)c(C(F)(F)F)c3)C(=O)C23CCCC(C)(C)C3)cc1F (racemic) [(±)-DR103, 4-(3-(4-cyano-3-(trifluoromethyl)phenyl)-7,7-dimethyl-4-oxo-2-thioxo-1,3-diazaspiro[4.5]decan-1-yl)-2-fluoro-N-methylbenzamide] |  | did not impact the proliferation | no significant growth inhibition | growth inhibition | growth inhibition | inhibited the growth | effectively inhibits the growth of both models | effectively antagonized | effectively antagonized; also recorded: potently inhibited | inhibited the growth | effectively inhibits the growth of both models | inhibited endogenous AR signaling | induced PARP cleavage | efficiently inhibits AR signaling | induces PARP cleavage |  |  |  | 
3 | CNC(=O)c1ccc(N2C(=S)N(c3ccc(C#N)c(C(F)(F)F)c3)C(=O)C2(C)C)cc1F [enzalutamide] |  |  |  |  | very sensitive |  |  |  |  | only inhibit the growth of VCaP/AR WT; also recorded: potently inhibits the growth |  |  |  |  |  | still remained sensitive | almost completely inhibited | none of the mutants conferred agonism | still remained sensitive

From patent publication US10206911B2, “Androgen receptor variants and methods for making and using” (MEMORIAL SLOAN-KETTERING CANCER CENTER, priority 2012, dated 2019)
